Laboratory results reported in paper PMC11091072, “Targeting bacterial nickel transport with aspergillomarasmine A suppresses virulence-associated Ni-dependent enzymes” (Nature Communications, 2024).
Where “and” joins values, the source holds several entries; their conditions need not be identical. Identical values can stand only once. Like-named read-outs stand apart in the source and are kept apart here.

Tests used:
[1] = test system: K. pneumoniae; type: cell-based, Klebsiella pneumoniae; details: for Growth curve (culture density): 50 μM; for growth with urea as sole nitrogen source: Chelex-treated nitrogen-limited medium
[2] = test system: NikA; type: binding, Klebsiella pneumoniae; details: 100 μM
[3] = target: T1, urease (Klebsiella pneumoniae subsp. pneumoniae, UniProt A6TE40+A6TE41+A6TE42); experiment: Urease activity in cell-free extracts (NH3 release, indophenol-hypochlorite); type: biochemical
T1 construct: endogenous in cells; host or cells: Klebsiella pneumoniae (ATCC 33495), sonicated and cleared lysate
T1 sequence (A6TE41 whole entry): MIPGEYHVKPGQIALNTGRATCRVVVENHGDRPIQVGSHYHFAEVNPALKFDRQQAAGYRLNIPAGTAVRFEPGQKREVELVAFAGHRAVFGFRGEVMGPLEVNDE
T1 sequence (A6TE40 whole entry): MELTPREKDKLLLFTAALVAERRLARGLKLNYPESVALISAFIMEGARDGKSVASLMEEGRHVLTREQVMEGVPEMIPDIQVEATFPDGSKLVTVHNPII
T1 sequence (A6TE42 whole entry): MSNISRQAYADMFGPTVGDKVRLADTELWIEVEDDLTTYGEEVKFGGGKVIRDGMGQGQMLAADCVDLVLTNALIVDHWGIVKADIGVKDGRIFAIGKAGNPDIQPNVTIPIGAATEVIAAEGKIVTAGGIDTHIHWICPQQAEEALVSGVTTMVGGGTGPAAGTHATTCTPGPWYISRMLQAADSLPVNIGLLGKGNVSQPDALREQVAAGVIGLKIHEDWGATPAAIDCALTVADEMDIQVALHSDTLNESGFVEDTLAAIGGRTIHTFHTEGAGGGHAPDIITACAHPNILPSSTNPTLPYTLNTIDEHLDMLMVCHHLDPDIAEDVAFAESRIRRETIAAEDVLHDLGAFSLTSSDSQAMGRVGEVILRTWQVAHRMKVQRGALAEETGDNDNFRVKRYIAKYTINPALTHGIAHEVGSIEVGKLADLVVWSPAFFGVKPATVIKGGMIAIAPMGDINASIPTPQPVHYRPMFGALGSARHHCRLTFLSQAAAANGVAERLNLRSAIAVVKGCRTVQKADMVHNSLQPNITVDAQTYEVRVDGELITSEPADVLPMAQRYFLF
Procedure: The cells were subsequently lysed by sonication, and cell debris was removed with centrifugation (20,000 × g, 10 min). […] Liberated NH3 was quantified using the indophenol-hypocholorite reaction as previously described. The total amount of protein was quantified by Bradford assay using bovine serum albumin as standard. Each assay was performed in duplicate wells.
FIG S7 Evaluation of Zn-AMA as a direct inhibitor of urease. A) Checkerboard analysis of Zn-AMA and AHA on urease activity of K. […]
Dose- […]
response curves of fluorofamide, Zn-AMA, and AMA inhibiting the urease-catalyzed release of NH3 quantified with indophenol hypochlorite. The rates of NH3 production were measured over 20 min and were normalized to total protein concentration. Experiments were performed in duplicate. Individual replicates are shown as colored circles.

[4] = test system: K. pneumoniae urease activity (whole cell); experiment: microbe, parasite or virus in culture; type: cell-based, Klebsiella pneumoniae ATCC 33495; details: for K. pneumoniae urease-dependent pH change (pH): 37 °C
[5] = target: NikA (Klebsiella pneumoniae, UniProt A6TFA3); type: binding; details: for n (stoichiometry, ITC) / ∆G / ∆H / −T∆S: 37 °C; for Kd: read-out: KD for NikA (ITC), 25 mM Tris-HCl, 150 mM NaCl, 0.1% Triton X-100, pH 7.5, 37 °C
NikA (Klebsiella pneumoniae, UniProt A6TFA3), sequence (A6TFA3 entry or part of it): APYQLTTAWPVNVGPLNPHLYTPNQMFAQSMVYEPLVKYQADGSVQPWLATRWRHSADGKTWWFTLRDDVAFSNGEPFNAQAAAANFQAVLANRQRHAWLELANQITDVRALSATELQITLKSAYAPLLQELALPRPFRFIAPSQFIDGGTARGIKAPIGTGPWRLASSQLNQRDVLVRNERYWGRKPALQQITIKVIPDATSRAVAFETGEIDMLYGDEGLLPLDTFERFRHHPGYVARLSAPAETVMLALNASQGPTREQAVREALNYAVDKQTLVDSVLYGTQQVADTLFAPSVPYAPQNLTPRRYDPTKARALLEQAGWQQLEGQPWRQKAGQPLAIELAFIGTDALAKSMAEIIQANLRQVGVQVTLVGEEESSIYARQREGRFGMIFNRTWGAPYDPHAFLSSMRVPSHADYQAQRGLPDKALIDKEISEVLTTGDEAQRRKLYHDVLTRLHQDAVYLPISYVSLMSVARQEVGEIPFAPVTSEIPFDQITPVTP

[6] = test system: K. pneumoniae; type: cell-based, Klebsiella pneumoniae; details: 200 μM, 24 h exposure
[7] = test system: S. aureus; type: cell-based, Staphylococcus aureus; details: 200 μM, 24 h
[8] = test system: HEK293 cells; experiment: HEK293 cytotoxicity assay (Cell Titer Glo 2.0)
[9] = test system: S. aureus urease activity (whole cell); type: cell-based, Staphylococcus aureus; details: S. aureus, artificial urine, 24 h
[10] = test system: K. pneumoniae urease activity (Ni2+ uptake); experiment: Competition of Zn-AMA with Ni-(L-His)2 (urease-dependent pH); type: cell-based, Klebsiella pneumoniae; details: Zn-AMA 0 μM
[11] = pH 7.5, 2:1 complex, cited from earlier work

SMILES: CC(=NO)C(C)=NO [DMG, dimethylglyoxime, reference compound]
- Growth curve (culture density) ([1]; 15.15 h): 0.125 and 0.12
- Growth curve (culture density) ([1]; 16.15 h): 0.131 and 0.126
- Growth curve (culture density) ([1]; 17.15 h): 0.14 and 0.136
- growth with urea as sole nitrogen source [1]: did not

SMILES: [Cl-].[Cl-].[Co+2] [Co^2+, CoCl2]
- effect on stability of recombinant NikA [2]: did not affect it

SMILES: [Cl][Ni][Cl] [Ni^2+, NiCl2]
- effect on stability of recombinant NikA [2]: did not affect it

SMILES: NP(N)(=O)NC(=O)c1ccc(F)cc1 [fluorfamide, reference compound]
- Specific activity (cell-free indophenol urease assay) ([3]; Fluorofamide 0.000122 mM): 36.97 nmol/min/mg and 30.98 nmol/min/mg
- Specific activity (cell-free indophenol urease assay) ([3]; Fluorofamide 0.000244 mM): 36.32 nmol/min/mg and 35.04 nmol/min/mg
- Specific activity (cell-free indophenol urease assay) ([3]; Fluorofamide 0.000488 mM): 34.40 nmol/min/mg and 35.26 nmol/min/mg
- Specific activity (cell-free indophenol urease assay) ([3]; Fluorofamide 0.000977 mM): 30.98 nmol/min/mg and 33.12 nmol/min/mg
- Specific activity (cell-free indophenol urease assay) ([3]; Fluorofamide 0.001953 mM): 25.00 nmol/min/mg and 23.72 nmol/min/mg
- Specific activity (cell-free indophenol urease assay) ([3]; Fluorofamide 0.003906 mM): 16.88 nmol/min/mg
- Specific activity (cell-free indophenol urease assay) ([3]; Fluorofamide 0.007813 mM): 7.48 nmol/min/mg and 7.26 nmol/min/mg
- Specific activity (cell-free indophenol urease assay) ([3]; Fluorofamide 0.015625 mM): 2.56 nmol/min/mg and 2.35 nmol/min/mg
- Specific activity (cell-free indophenol urease assay) ([3]; Fluorofamide 0.03125 mM): 0.85 nmol/min/mg and 0.64 nmol/min/mg
- Specific activity (cell-free indophenol urease assay) ([3]; Fluorofamide 0.0625 mM): 0.21 nmol/min/mg

SMILES: N[C@@H](CN[C@@H](CC(=O)O)C(=O)O)C(=O)O.[Zn+2] [Zn-Toxin A]
- Urease-dependent pH change (pH) ([4]; Zn-Toxin A 0.19 μM): 7.83 and 7.80
- Urease-dependent pH change (pH) ([4]; Zn-Toxin A 0.39 μM): 7.83 and 7.88
- Urease-dependent pH change (pH) ([4]; Zn-Toxin A 0.78 μM): 7.88 and 7.78
- Urease-dependent pH change (pH) ([4]; Zn-Toxin A 1.56 μM): 7.66 and 7.81
- Urease-dependent pH change (pH) ([4]; Zn-Toxin A 3.12 μM): 7.79 and 7.72
- Urease-dependent pH change (pH) ([4]; Zn-Toxin A 6.25 μM): 7.83 and 7.77
- Urease-dependent pH change (pH) ([4]; Zn-Toxin A 12.5 μM): 7.84 and 7.79
- Urease-dependent pH change (pH) ([4]; Zn-Toxin A 25 μM): 7.79 and 7.82
- Urease-dependent pH change (pH) ([4]; Zn-Toxin A 50 μM): 7.77 and 7.81
- Urease-dependent pH change (pH) ([4]; Zn-Toxin A 100 μM): 7.79 and 7.77
- Urease-dependent pH change (pH) ([4]; Zn-Toxin A 200 μM): 7.66 and 7.69
- n (stoichiometry, ITC) ([5]; pH 7.5): 1.15
- ∆G ([5]; pH 7.5): -7.4 kcal/mol
- ∆H ([5]; pH 7.5): -9.6 kcal/mol
- −T∆S ([5]; pH 7.5): 2.2 kcal/mol
- ∆G ([5]; pH 7.5, listed as Zn-toxin A): -7.41 kcal/mol
- ∆H ([5]; pH 7.5, listed as Zn-toxin A): -9.61 kcal/mol
- -∆TS ([5]; Fig S13, 37 °C, pH 7.5): 2.20
- Kd [5]: 6 ± 0.8 µM

SMILES: N[C@@H](CN[C@@H](CN[C@@H](CC(=O)O)C(=O)O)C(=O)O)C(=O)O.[Co+2] [Co-AMA]
- bacterial viability (spot dilutions) [6]: do not affect bacterial viability
- bacterial viability (spot dilutions) [7]: not lethal to bacteria
- HEK 293T cytotoxicity assay raw signal ([8]; Co-AMA 0.5 μg/mL): 622984 and 609603 and 578025
- HEK 293T cytotoxicity assay raw signal ([8]; Co-AMA 1 μg/mL): 648007 and 588509 and 584554
- HEK 293T cytotoxicity assay raw signal ([8]; Co-AMA 2 μg/mL): 653814 and 579149 and 584837
- HEK 293T cytotoxicity assay raw signal ([8]; Co-AMA 4 μg/mL): 624260 and 594763 and 611086
- HEK 293T cytotoxicity assay raw signal ([8]; Co-AMA 8 μg/mL): 684397 and 665902 and 598886
- HEK 293T cytotoxicity assay raw signal ([8]; Co-AMA 16 μg/mL): 641409 and 612229 and 581248
- HEK 293T cytotoxicity assay raw signal ([8]; Co-AMA 32 μg/mL): 567905 and 544667 and 548517
- HEK 293T cytotoxicity assay raw signal ([8]; Co-AMA 64 μg/mL): 578062 and 599992 and 521662
- HEK 293T cytotoxicity assay raw signal ([8]; Co-AMA 128 μg/mL): 421336 and 474275 and 462640
- HEK 293T cytotoxicity assay raw signal ([8]; Co-AMA 256 μg/mL): 411884 and 395016 and 434679
- HEK 293T cytotoxicity assay raw signal ([8]; Co-AMA 512 μg/mL): 266726 and 265058 and 263860
- reduction in HEK293 cell viability ([8]; highest test concentration 512 μg/mL, 48 h): 50%
- effect on stability of recombinant NikA [2]: increase NikA’s stability
- n (stoichiometry, ITC) ([5]; pH 7.5): 1.06
- ∆G ([5]; pH 7.5): -6.9 kcal/mol
- ∆H ([5]; pH 7.5): -10.5 kcal/mol
- −T∆S ([5]; pH 7.5): 3.6 kcal/mol
- Kd [5]: 13 ± 0.4 µM
- effect on urease activity [9]: inhibited urease activity similarly

SMILES: N[C@@H](Cc1c[nH]cn1)C(=O)O [L-His, L-histidine, reference compound]
- pH of culture (Zn-AMA v.s. L-His) ([10]; L-His 3.12 μM): 8.06 and 8.1
- pH of culture (Zn-AMA v.s. L-His) ([10]; L-His 6.25 μM): 8.07 and 8.1
- pH of culture (Zn-AMA v.s. L-His) ([10]; L-His 12.5 μM): 7.85 and 7.9
- growth with urea as sole nitrogen source [1]: not viable
- Kd ([11]; read-out: KD1 for Ni^2+): 0.64 µM
- Kd ([11]; read-out: KD2 for Ni^2+): 8.8 µM

SMILES: [Cl-].[Cl-].[Zn+2] [ZnCl2, reference compound]
- effect on stability of recombinant NikA [2]: stabilized NikA
- K. pneumoniae urease-dependent pH change (pH) ([4]; 0.39 μM, artificial urine, 24 h): 8.18 and 8.29
- K. pneumoniae urease-dependent pH change (pH) ([4]; 0.78 μM, artificial urine, 24 h): 8.27 and 8.39
- K. pneumoniae urease-dependent pH change (pH) ([4]; 1.56 μM, artificial urine, 24 h): 8.17 and 8.34
- K. pneumoniae urease-dependent pH change (pH) ([4]; 3.12 μM, artificial urine, 24 h): 8.20 and 8.42
- K. pneumoniae urease-dependent pH change (pH) ([4]; 6.25 μM, artificial urine, 24 h): 8.19 and 8.30
- K. pneumoniae urease-dependent pH change (pH) ([4]; 12.5 μM, artificial urine, 24 h): 8.23 and 8.21
- K. pneumoniae urease-dependent pH change (pH) ([4]; 25 μM, artificial urine, 24 h): 8.25 and 8.11
- K. pneumoniae urease-dependent pH change (pH) ([4]; 50 μM, artificial urine, 24 h): 8.14 and 8.06
- K. pneumoniae urease-dependent pH change (pH) ([4]; 100 μM, artificial urine, 24 h): 8.06 and 8.01
- K. pneumoniae urease-dependent pH change (pH) ([4]; 200 μM, artificial urine, 24 h): 7.51 and 7.49
- effect on urease activity ([4]; K. pneumoniae, artificial urine, 24 h): did not affect urease activity
- effect on urease activity [9]: did not affect urease activity
